# Laboratory results from patent publication US12286418B2, “Compounds and methods for treating or preventing bacterial infections” (priority 2019, dated 2025).
# What was measured:
# OXA-48 = OXA-48 (Klebsiella pneumoniae, UniProt Q6XEC0); test: Surface plasmon resonance binding to immobilized 6x-His-OXA-48; parameters: His-tag (N, cleaved yes); made in house; host or cells: E. coli BL21(DE3), pET28a; conditions: SPR
# Method: 6×-His-OXA-48 was capture/amine-coupled on a Ni-NTA Chip at a density of ˜5000 RU. Running buffer was 10 mM HEPES pH 7.4, 150 NaCl, 50 mM NaHCO3, 0.005% Tween-20, 2% DMSO. Concentration gradients of each compound were created from 0-15 μM using OneStep Injections in at least triplicates for meropenem and CDD-97.
# Synthon-derivatives were created, without DNA tags, based on high OXA-48 enrichment and minimal NTC enrichment. The activity of these derivatives was assessed using inhibition assays with purified OXA-48. Compounds were tested for the ability to inhibit OXA-48 from hydrolyzing nitrocefin, a chromogenic β-lactam substrate routinely used in β-lactamase inhibition assays. Nitrocefin contains a conjugated ring system that is readily hydrolyzed and produces a visible color shift from yellow to red upon hydrolysis (O'Callaghan, et al., 1972, Antimicrob. Agents Chemother. 1:283-288). The rate of nitrocefin hydrolysis in the presence of a constant amount of OXA-48 and increasing concentrations of a given compound of interest was monitored at 482 nm. These rates were plotted against compound concentration to determine the inhibition constant (Ki) against OXA-48. Compounds with promising activity were also assessed for binding using surface plasmon resonance (SPR). SPR was performed using 6×-His-OXA-48 enzyme that was amine-coupled on a Ni-NTA Chip. Meropenem, which covalently binds and inhibits OXA-48, was used as a positive control.
# OXA-10 = OXA-10 (Pseudomonas aeruginosa, UniProt P14489); test: Inhibition of other OXA enzymes (nitrocefin reporter): OXA-10; assay type: biochemical
# Method: (§1) Compounds were tested for inhibition of a given OXA enzyme from hydrolyzing nitrocefin using a Tecan plate reader. […] A control with no compound was included in each run. For each compound concentration, the velocity of nitrocefin hydrolysis was determined at 482 nm and fit to the Morrison equation. […] The average Ki of separate experiments, each of which consisted of duplicate runs, is reported and error was quantified as the standard deviation.
# (§2) The high sequence diversity of class D β-lactamases has made it difficult to find a class-wide inhibitor. The inhibition activity of CDD-97 was tested against other OXA-enzymes of varying sequence identity, to assess its spectrum of activity (Table 2). OXA-10 is regarded as the canonical OXA, however it is not a major clinical threat as it mainly hydrolyzes penicillins. OXA-58 is another carbapenemase unable to hydrolyze extended-spectrum cephalosporins like OXA-48. Both OXA-48 and OXA-58 are predominantly found in gram-negative bacteria, however OXA-48 is prevalent in the Enterobacteriaceae family (mainly Klebsiella pneumoniae), while OXA-58 is found in the Moraxellaceae family (mainly Acintobacter baumannii). While K. pneumoniae is more rampant in the clinics and most OXA-mediated carbapenem is due to OXA-48, A. baumannii nosocomial infections are a growing issue. OXA-163 is an OXA-48 like enzyme also prevalent in Enterobacteriaceae. […]
# OXA-24 = molecular target: T1, OXA-24 (Acinetobacter baumannii, UniProt Q8RLA6); test: Inhibition of other OXA enzymes (nitrocefin reporter): OXA-24; assay type: biochemical
# T1 construct: His-tag (N, cleaved yes); made in house; host or cells: E. coli BL21 (DE3), pET28a
# Method: as §1, §2
# OXA-163 = OXA-163 (Klebsiella pneumoniae, UniProt Q6XEC0, DEL214-217/S212D); test: Inhibition of other OXA enzymes (nitrocefin reporter): OXA-163; assay type: biochemical, Enterobacteriaceae
# Method: as §1, §2
# OXA-10, sequence (P14489 20-266): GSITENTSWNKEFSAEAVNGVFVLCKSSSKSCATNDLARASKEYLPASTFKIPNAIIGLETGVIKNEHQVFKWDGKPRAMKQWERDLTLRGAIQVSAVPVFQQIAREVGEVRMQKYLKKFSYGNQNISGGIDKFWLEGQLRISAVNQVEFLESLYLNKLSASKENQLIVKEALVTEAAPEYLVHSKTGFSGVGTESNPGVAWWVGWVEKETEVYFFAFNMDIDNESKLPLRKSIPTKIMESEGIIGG
# OXA-48, sequence (Q6XEC0 23-265, looked up): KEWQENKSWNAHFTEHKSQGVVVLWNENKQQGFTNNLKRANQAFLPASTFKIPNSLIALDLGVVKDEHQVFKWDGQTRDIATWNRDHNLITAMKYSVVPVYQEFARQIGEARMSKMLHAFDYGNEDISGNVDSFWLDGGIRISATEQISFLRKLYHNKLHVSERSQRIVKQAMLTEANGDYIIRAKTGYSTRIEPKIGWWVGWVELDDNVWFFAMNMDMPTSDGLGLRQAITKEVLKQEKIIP
# OXA-163, sequence (Q6XEC0 23-211, added parts left off, stated change not applied): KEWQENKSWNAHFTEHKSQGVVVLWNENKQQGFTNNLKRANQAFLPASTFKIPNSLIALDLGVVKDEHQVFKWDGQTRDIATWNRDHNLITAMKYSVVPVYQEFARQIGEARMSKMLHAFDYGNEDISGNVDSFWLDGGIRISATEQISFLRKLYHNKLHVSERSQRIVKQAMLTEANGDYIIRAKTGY
# T1 sequence (Q8RLA6 entry or part of it): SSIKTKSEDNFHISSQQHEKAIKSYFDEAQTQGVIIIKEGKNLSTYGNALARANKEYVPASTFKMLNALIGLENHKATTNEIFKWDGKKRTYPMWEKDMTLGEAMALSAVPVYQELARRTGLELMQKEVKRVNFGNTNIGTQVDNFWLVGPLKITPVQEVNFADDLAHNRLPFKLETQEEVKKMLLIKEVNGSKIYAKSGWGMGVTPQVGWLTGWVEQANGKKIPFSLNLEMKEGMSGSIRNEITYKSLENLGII
structure (smiles),measurement,setting,value
"CCOc1ccccc1N1CCN(c2ncnc(N3CCC(C(=O)O)CC3)n2)CC1 [CDD-97, 1-(4-(4-(2-ethoxyphenyl)piperazin-1-yl)-1,3,5-triazin-2-yl)piperidine-4-carboxylic acid]",KD fold lower (weaker) than that of Meropenem,OXA-48; OXA-48,~3 fold
same,Kd,OXA-48; immobilized His-OXA-48,1.2 ± 0.004 µM
same,Ki,OXA-10,61 ± 27 µM
same,Ki fold less potent than against OXA-48,OXA-10; OXA-10 vs OXA-48,about 100 fold
same,Ki,OXA-24,14 ± 1 µM
same,Ki,OXA-163,0.44 ± 0.02 µM
